Data from US4481149A, “Fluorine-containing phenyl benzoate compounds, and their production and use” (Daikin Kogyo Co., Ltd., priority 1978, dated 1984).

Experiment: Temperature range of liquid crystal (MR)
Assay type: physicochemical
Conditions: Table 1

For `CCCCOc1ccc(C(=O)Oc2ccc(C(F)(F)F)cc2)cc1` [C4 H9 O / CF3], the “Temperature (MR) Range of liquid crystal” value (monotropic) was 93.4 °C.
For `CCCCc1ccc(C(=O)Oc2ccc(C(F)(F)F)cc2)cc1` [Example 1, p'-trifluoromethylphenyl p-n-butylbenzoate], the “Temperature (MR) Range of liquid crystal” value (monotropic) was 67.8 °C.
In the case of `CCCCCc1ccc(C(=O)Oc2ccc(C(F)(F)F)cc2)cc1` [Example 2, p'-trifluoromethylphenyl p-n-pentylbenzoate], the “Temperature (MR) Range of liquid crystal” value (monotropic) is reported as 66.8 °C.
With `CCCCCCc1ccc(C(=O)Oc2ccc(C(F)(F)F)cc2)cc1` [Example 3, p'-trifluoromethylphenyl p-n-hexylbenzoate] the “Temperature (MR) Range of liquid crystal” value (monotropic) was 58.8 °C.
For `CCCCCCCc1ccc(C(=O)Oc2ccc(C(F)(F)F)cc2)cc1` [Example 4, p'-trifluoromethylphenyl p-n-heptylbenzoate], the “Temperature (MR) Range of liquid crystal” value (monotropic) was 61.0 °C.
In the case of `CCCCCCCCc1ccc(C(=O)Oc2ccc(C(F)(F)F)cc2)cc1` [Example 5, p'-trifluoromethylphenyl p-n-octylbenzoate], the “Temperature (MR) Range of liquid crystal” value (monotropic) is reported as 58.5 °C.
For `CCCCCOc1ccc(C(=O)Oc2ccc(C(F)(F)F)cc2)cc1` [Example 7, p'-trifluoromethylphenyl p-n-pentyloxybenzoate], the “Temperature (MR) Range of liquid crystal” value (monotropic) was 78.5 °C.
With `CCCCCCOc1ccc(C(=O)Oc2ccc(C(F)(F)F)cc2)cc1` [Example 8, p'-trifluoromethylphenyl p-n-hexyloxybenzoate] the “Temperature (MR) Range of liquid crystal” value was 74.7-76.5 °C.
In the case of `CCCCCCCOc1ccc(C(=O)Oc2ccc(C(F)(F)F)cc2)cc1` [Example 9, p'-trifluoromethylphenyl p-n-heptyloxybenzoate], the “Temperature (MR) Range of liquid crystal” value is reported as 62.9-74.3 °C.
In the case of `CCCCCCCCOc1ccc(C(=O)Oc2ccc(C(F)(F)F)cc2)cc1` [Example 10, p'-trifluoromethylphenyl p-n-octyloxybenzoate], the “Temperature (MR) Range of liquid crystal” value is reported as 62.5-72.5 °C.
With `N#Cc1ccc(OC(=O)c2ccc(C(F)(F)C(F)(F)C(F)(C(F)(F)F)C(F)(F)F)cc2)cc1` [Example 12, p'-Cyanophenyl p-(3-trifluoromethylperfluorobutyl)benzoate] the “Temperature (MR) Range of liquid crystal” value was 90.0-98.5 °C.
In the case of `N#Cc1ccc(OC(=O)c2ccc(C(F)(F)C(F)(F)C(F)(F)C(F)(F)C(F)(C(F)(F)F)C(F)(F)F)cc2)cc1` [Example 13], the “Temperature (MR) Range of liquid crystal” value is reported as 109.6-121.3 °C.
With `N#Cc1ccc(OC(=O)c2ccc(C(F)(F)C(F)(F)C(F)(F)C(F)(F)C(F)(F)C(F)(F)C(F)(C(F)(F)F)C(F)(F)F)cc2)cc1` [Example 14] the “Temperature (MR) Range of liquid crystal” value was 130.7-140.7 °C.
For `N#Cc1ccc(OC(=O)c2ccc(C(F)(F)C(F)(F)C(F)(F)C(F)(F)C(F)(F)C(F)(F)F)cc2)cc1` [Example 15], the “Temperature (MR) Range of liquid crystal” value was 99.8-123.3 °C.
With `N#Cc1ccc(OC(=O)c2ccc(C(F)(F)C(F)(F)C(F)(F)C(F)(F)C(F)(F)C(F)(F)C(F)(F)C(F)(F)F)cc2)cc1` [Example 16] the “Temperature (MR) Range of liquid crystal” value was 118-145 °C.
For `Cc1ccc(OC(=O)c2ccc(C(F)(F)C(F)(F)C(F)(F)C(F)(F)C(F)(F)C(F)(F)C(F)(F)C(F)(F)F)cc2)cc1` [Example 17], the “Temperature (MR) Range of liquid crystal” value (monotropic) was 111-112 °C.
With `CCCCCc1ccc(OC(=O)c2ccc(C(F)(F)C(F)(F)C(F)(C(F)(F)F)C(F)(F)F)cc2)cc1` [Example 18] the “Temperature (MR) Range of liquid crystal” value (monotropic) was 57-58 °C.
In the case of `O=C(Oc1ccc(C(F)(F)F)cc1)c1ccc(C(F)(F)C(F)(F)C(F)(C(F)(F)F)C(F)(F)F)cc1` [Example 19], the “Temperature (MR) Range of liquid crystal” value (monotropic) is reported as 67.5-68.7 °C.
With `O=C(Oc1ccc([N+](=O)[O-])cc1)c1ccc(C(F)(F)C(F)(F)C(F)(C(F)(F)F)C(F)(F)F)cc1` [Example 20] the “Temperature (MR) Range of liquid crystal” value was 68.6-79.2 °C.
